Several values for one entry are separate records, joined by “and”; a condition that tells them apart may be missing. Equal values may be shown once.
Legend:
[1] = molecular target: T1, human κ-OR (Homo sapiens, UniProt P41145); experiment: Competitive inhibition of [3H]diprenorphine binding to CHO-κ-OR membranes; conditions: for Ki: displacement of [3H]diprenorphine from CHO cell membranes expressing human κ-OR, n = 3, in duplicate, read-out: Ki ± SEM
T1 construct: expressed in transfected cells; host or cells: CHO cells, stably transfected; membranes

[2] = system: T2, κ-OR (CHO-hκ-OR); experiment: Antagonism of dynorphin A (10 nM) at κ-OR in the [35S]GTPγS assay; assay type: biochemical, human; conditions: for [35S]GTPγS binding (% increase over basal), single experiments / [35S]GTPγS binding (% increase over basal), Mean: antagonist 3 μM; for [35S]GTPγS binding (% increase over basal), single experiments: without antagonist 130 and 296; for [35S]GTPγS binding (% increase over basal), Mean: without antagonist mean 213
T2 construct: expressed in transfected cells; host or cells: CHO cells, stably transfected; membranes

[3] = molecular target: T3, rat μ opioid receptor (Rattus norvegicus, UniProt P33535); experiment: biochemical; assay type: binding
T3 construct: expressed in transfected cells; host or cells: CHO cells, stably transfected; membranes

[4] = molecular target: T4, mouse δ opioid receptor (Mus musculus, UniProt P32300); experiment: biochemical; assay type: binding
T4 construct: expressed in transfected cells; host or cells: CHO cells, stably transfected; membranes

[5] = molecular target: T1, human κ-OR; experiment: biochemical
[6] = system: κ-OR; parameters: method as in doi:10.1007/978-1-59745-197-0_6; conditions: cited from earlier work

SMILES	Ki [1] [µM]	[35S]GTPγS binding (% increase over basal), single experiments [2]	[35S]GTPγS binding (% increase over basal), Mean [2] [% increase over basal]	affinity for µ-OR (in words) [3]	affinity for δ-OR (in words) [4]	Ki [3] [µM]	Ki [4] [µM]	inhibition at 3 µM ([1]; 3 µM, κ-OR, read-out: inhibition (displacement) of [3H]diprenorphine binding, initial screening) [%]	EC50 [5] [µM]	Emax [5] [%]	Ke [6] [pM]	antagonism of dynorphin A (in words) ([2]; primary screen at 3 μM)
COC(=O)C1CC(OC(C)=O)C(=O)C2C1(C)CCC1C(=O)OC(c3cc(CO)oc3CO)CC12C (stereo not drawn) [compound 5]	> 1	175 % increase over basal and 278 % increase over basal	226	no affinity	no affinity	–	–	–	–	–	–	–
COC(=O)C1CC(OCOCCO)C(=O)C2C1(C)CCC1C(=O)OC(c3ccoc3)CC12C (stereo not drawn) [compound 6]	0.0127 ± 0.0013	–	–	–	–	> 1	> 1	–	–	–	–	–
COC(=O)C1CC(OC(C)=O)C(=O)C2C1(C)CCC1C(=O)OC(c3ccoc3CO)CC12C (stereo not drawn) [compound 4]	0.11 ± 0.01	249 % increase over basal and 415 % increase over basal	332	–	–	–	–	≥ 50	0.345 ± 0.047	103	–	–
COC(=O)C1CC(OC(C)=O)C(=O)C2C1(C)CCC1C(=O)OC(c3coc(CN(C)C)c3)CC12C (stereo not drawn) [compound 3]	> 1	146 % increase over basal and 270 % increase over basal	208	no affinity	no affinity	–	–	–	–	–	–	–
COC(=O)C1CC(OC(C)=O)C(=O)C2C1(C)CCC1C(=O)OC(c3ccoc3CN(C)C)CC12C (stereo not drawn) [compound 2]	> 1	182 % increase over basal and 319 % increase over basal	251	no affinity	no affinity	–	–	–	–	–	–	–
CC(C)[C@@H](CN1CC[C@@](C)(c2cccc(O)c2)[C@@H](C)C1)NC(=O)[C@H]1Cc2ccc(O)cc2CN1 [JDTic, reference compound]	–	–	0	–	–	–	–	–	–	–	< 40	abolished response to dynorphin A

From paper PMC3896271 (Beilstein Journal of Organic Chemistry, 2013)
